Measurements taken from PMC7278688, “Anti-Hypertensive Activity of Novel Peptides Identified from Olive Flounder (Paralichthys olivaceus) Surimi” (Foods, 2020).
“Also recorded” adds a separate entry of the source. Like-named read-outs stand apart in the source and are kept apart here. Where a SMILES comes first, the peptide text is derived from it. Where no end group is shown, it is not given here.

What was measured:
[1] = system: human umbilical vein endothelial cells (HUVECs); test: NO production in HUVECs (Griess reagent); assay type: cell-based; conditions: 3 h, 540 nm, compared with control
Procedure: Cultures of human umbilical vein endothelial cells (HUVEC, ATCC* CRL-1730) were incubated at 37 °C in a cell incubator supplied with 5% CO2. Cell media compositions were based on those used in a previous study. Furthermore, production of NO was analyzed using Griess reagent (1% sulphanilamide and 0.1% naphthylethylenediamine dihydrochloride in 2.5% phosphoric acid), according to the method described by Ko et al.. HUVEC were seeded in 96-well plates at 1 × 10* cells/mL; after pre-incubation (24 h) the cells were treated without or with three concentrations of peptides (25, 50, and 100 μg/mL) for 3 h. Then the cells were treated with Griess reagent and incubated at 37 °C for 10 min in the dark. The […] was quantified using a microplate reader at 540 nm.

[2] = system: spontaneously hypertensive rats (SHRs); test: Systolic blood pressure after oral administration in SHRs (tail-cuff); assay type: in vivo; conditions: for systolic blood pressure (SBP): 3 h after oral administration, 50 mg/kg in 1 mL saline, 6 SHRs per group, saline group 200–210 mmHg, mean ± SD; for change in blood pressure, overall result (in words): oral administration, 50 mg/kg, SHRs, time not stated
Procedure: SHRs with tail SBP over 180 mmHg were obtained from SLC Inc. (Shizuoka, Japan). Seven-week-old male, specific pathogen-free SHRs of approximately 300 g body weight were raised under room temperature (25 °C) with a 12-h light/dark cycle. The rats were fed a normal diet and tap water, with ad libitum feeding. All animals were administrated the dissolved samples in saline solution. The rats were divided into five groups comprised of a control group (saline); a group treated with peptide from sardine (positive control); and groups treated with any of three peptides (IVDR, WYK, and VASVI). Each was orally administered to 6 SHRs at a dose of 50 mg/kg which was dissolved in 1 mL saline. SBP was measured by a tail-cuff method before administration and at 3, 6, and 9 h post-administration using a CODA™ blood pressure monitor (Kent Scientific Corp., Torrington, CT, USA). The animal experiment received approval from the Animal Care and Use Committee of the Jeju National University (Approval NO. 2017-0017) and all experiments were performed in accordance with the guidelines.

[3] = system: Akt (protein kinase B) in HUVECs; test: Phosphorylation of Akt in HUVECs, Western blot; assay type: cell-based, human; conditions: for phosphorylation level of Akt (in words): 25, 50, and 100 μg/mL, HUVECs pretreated 24 h, triplicate
Procedure: (§1) HUVECs were seeded on 6-well plates at a concentration of 1 × 10* cells/mL. Sixteen hours after seeding, the cells were pretreated with the peptides for 24 h. The experimental procedure was completed as previously described. The primary antibodies (p-Akt, p-eNOS, and β-actin) were used at 1:1000 dilutions and incubated with the membrane at 4 °C overnight. The secondary antibodies were used at 1:3000 dilutions. All antibodies were purchased from Cell Signaling Technology (Beverly, MA, USA).

[4] = target: T1, Angiotensin I-converting enzyme (ACE) (Homo sapiens, UniProt P12821); test: ACE inhibitory activity assay (Dojindo ACE kit-WST); assay type: biochemical; set-up: purchased Dojindo (Kumamoto, Japan); conditions: for IC50: mean ± SD of triplicate experiments, read-out: IC50 value of ACE inhibition
Procedure: The inhibitory activity of ACE was measured using the Dojindo ACE kit-WST (Kumamoto, Japan) in accordance with the manufacturer’s protocols. The principles of the kit have been described in a previous study.
The inhibitory ratios were calculated as follows:Inhibition rate (%) = [(Control − Sample)/(Control − Blank)] × 100(1) where IC50 is the concentration of inhibitor required for 50% inhibition of an enzymatic activity.
Target sequence in this assay (P12821 30-1306, species assumed): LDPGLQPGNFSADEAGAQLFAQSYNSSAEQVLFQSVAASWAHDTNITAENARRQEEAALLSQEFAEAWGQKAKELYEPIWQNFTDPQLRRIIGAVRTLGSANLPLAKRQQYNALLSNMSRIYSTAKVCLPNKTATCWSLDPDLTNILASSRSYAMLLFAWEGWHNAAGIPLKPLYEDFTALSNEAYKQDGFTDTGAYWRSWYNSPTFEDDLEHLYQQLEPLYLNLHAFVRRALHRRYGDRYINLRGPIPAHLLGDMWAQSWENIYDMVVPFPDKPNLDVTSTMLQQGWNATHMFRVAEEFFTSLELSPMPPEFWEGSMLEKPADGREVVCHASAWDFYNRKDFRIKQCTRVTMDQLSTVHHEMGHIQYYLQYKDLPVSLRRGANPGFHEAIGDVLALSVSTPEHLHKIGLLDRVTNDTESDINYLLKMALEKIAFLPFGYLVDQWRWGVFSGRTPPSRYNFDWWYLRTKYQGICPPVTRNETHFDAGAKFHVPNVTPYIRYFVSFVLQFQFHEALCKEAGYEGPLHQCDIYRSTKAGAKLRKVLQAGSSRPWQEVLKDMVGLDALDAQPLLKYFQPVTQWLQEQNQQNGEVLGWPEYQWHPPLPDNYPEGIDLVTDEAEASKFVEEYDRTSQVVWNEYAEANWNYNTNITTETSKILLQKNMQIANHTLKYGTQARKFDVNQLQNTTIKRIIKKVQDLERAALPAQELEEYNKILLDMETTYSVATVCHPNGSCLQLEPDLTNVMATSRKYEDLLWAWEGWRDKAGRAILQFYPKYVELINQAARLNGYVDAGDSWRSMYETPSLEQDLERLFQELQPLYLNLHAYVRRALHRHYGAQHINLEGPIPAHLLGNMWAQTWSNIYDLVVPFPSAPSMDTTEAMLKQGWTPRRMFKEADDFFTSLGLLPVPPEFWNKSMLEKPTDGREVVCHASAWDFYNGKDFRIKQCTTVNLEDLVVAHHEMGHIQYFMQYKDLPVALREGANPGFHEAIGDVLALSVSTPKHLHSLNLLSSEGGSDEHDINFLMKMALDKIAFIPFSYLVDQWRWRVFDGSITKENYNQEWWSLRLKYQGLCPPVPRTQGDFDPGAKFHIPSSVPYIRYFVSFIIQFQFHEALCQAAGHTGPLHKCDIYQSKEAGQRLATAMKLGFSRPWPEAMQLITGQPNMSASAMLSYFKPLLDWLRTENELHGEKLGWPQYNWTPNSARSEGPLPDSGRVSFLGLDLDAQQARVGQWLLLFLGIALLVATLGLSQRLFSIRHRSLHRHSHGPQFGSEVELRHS

[5] = system: endothelial nitric oxide synthase (eNOS) in HUVECs; test: Phosphorylation of eNOS in HUVECs, Western blot; assay type: cell-based, human; conditions: positive control or overall result, concentration not given
Procedure: as §1

[6] = target: T1, Angiotensin I-converting enzyme (ACE); set-up: purchased Dojindo (Kumamoto, Japan); conditions: cited from earlier work
From the text: Table 1 IC50 values of ACE inhibitory peptides derived from Paralichthys olivaceus surimi. | column: IC50 Value (µM) || Several studies have investigated the relationship between protein intake and blood pressure. […] Our previous study confirmed that surimi manufactured from olive flounder could be used as a beneficial ingredient in dietary protein due to its antihypertensive effect. The study also identified novel peptides derived from surimi. ACE inhibition plays a major physiological role in regulating blood pressure. The current study investigated the ACE inhibition activity of the novel peptides ...
Target sequence in this assay (P12821 30-1306, species assumed): as above

[7] = target: T1, Angiotensin I-converting enzyme (ACE)
Target sequence in this assay (P12821 30-1256): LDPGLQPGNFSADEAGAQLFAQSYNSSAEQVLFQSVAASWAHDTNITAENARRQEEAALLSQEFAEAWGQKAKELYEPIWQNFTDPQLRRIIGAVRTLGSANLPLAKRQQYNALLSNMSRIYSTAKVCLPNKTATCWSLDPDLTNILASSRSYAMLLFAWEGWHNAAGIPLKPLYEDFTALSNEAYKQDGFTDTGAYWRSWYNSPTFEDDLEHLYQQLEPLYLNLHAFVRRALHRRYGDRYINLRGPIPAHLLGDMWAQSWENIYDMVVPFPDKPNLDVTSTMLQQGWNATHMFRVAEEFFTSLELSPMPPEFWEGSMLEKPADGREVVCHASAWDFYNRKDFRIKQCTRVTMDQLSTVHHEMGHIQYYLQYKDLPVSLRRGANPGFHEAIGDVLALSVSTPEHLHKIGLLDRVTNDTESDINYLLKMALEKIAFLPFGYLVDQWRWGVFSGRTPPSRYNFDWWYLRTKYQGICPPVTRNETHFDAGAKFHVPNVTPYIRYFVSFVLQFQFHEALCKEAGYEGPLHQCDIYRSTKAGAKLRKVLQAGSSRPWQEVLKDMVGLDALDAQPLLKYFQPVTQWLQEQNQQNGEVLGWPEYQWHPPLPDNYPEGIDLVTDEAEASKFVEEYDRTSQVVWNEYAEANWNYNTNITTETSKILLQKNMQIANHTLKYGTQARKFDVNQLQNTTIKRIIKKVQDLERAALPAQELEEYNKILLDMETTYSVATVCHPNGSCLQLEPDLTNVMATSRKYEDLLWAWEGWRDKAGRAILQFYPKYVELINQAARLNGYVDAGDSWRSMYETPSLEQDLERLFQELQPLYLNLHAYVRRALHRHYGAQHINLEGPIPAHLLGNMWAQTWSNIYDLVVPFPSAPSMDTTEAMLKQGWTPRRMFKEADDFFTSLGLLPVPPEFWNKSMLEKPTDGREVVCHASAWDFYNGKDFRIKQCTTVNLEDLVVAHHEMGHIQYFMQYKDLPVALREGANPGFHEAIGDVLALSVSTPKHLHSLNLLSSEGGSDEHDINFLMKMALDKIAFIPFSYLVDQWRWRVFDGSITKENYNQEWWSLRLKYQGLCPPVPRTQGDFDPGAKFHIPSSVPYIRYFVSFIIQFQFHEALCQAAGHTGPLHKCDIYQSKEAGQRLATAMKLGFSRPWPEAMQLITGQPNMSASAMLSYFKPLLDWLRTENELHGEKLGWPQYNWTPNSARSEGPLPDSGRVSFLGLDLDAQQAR

[8] = peptides at 25–100 μg/mL, means ± SD of triplicate
[9] = literature peptides for comparison, read-out: IC50 of ACE inhibitory peptides isolated from food proteins

VASVI [VASVI, Valine-Alanine-Serine-Valine-Isoleucine]
NO production in HUVECs (in words) [1, 8]: significantly higher | systolic blood pressure (SBP) [2]: 181 ± 2 mmHg | change in blood pressure, overall result (in words) [2]: effective at decreasing SBP in SHRs | phosphorylation level of Akt (in words) [3]: significantly increased | ACE inhibitory activity (in words) [4]: high Angiotensin I-converting Enzyme (ACE) inhibition activity; also recorded: high ACE inhibitory activity | IC50 [4]: 32.7 ± 1.32 µM

NCCCC[C@H](NC(=O)[C@H](Cc1ccc(O)cc1)NC(=O)[C@@H](N)Cc1c[nH]c2ccccc12)C(=O)O [WYK, Tryptophan-Tyrosine-Lysine] (H-Trp-Tyr-Lys-OH)
NO production in HUVECs (in words) [1, 8]: significantly higher | systolic blood pressure (SBP) [2]: 173 ± 4 mmHg | change in blood pressure, overall result (in words) [2]: effective at decreasing SBP in SHRs | phosphorylation level of Akt (in words) [3]: significantly increased | ACE inhibitory activity (in words) [4]: high Angiotensin I-converting Enzyme (ACE) inhibition activity; also recorded: high ACE inhibitory activity | IC50 [4]: 33 ± 0.68 µM

CC[C@H](C)[C@H](N)C(=O)N[C@H](C(=O)N[C@@H](CC(=O)O)C(=O)N[C@@H](CCCNC(=N)N)C(=O)O)C(C)C [IVDR, Isoleucine-Valine-Aspartic acid-Arginine] (H-IVDR-OH)
NO production in HUVECs (in words) ([1]; 100 μg/mL): increased the production of NO only slightly | change in blood pressure, overall result (in words) [2]: effective at decreasing SBP in SHRs | phosphorylation level of Akt (in words) [3]: significantly increased | ACE inhibitory activity (in words) [4]: high Angiotensin I-converting Enzyme (ACE) inhibition activity; also recorded: high ACE inhibitory activity | IC50 [4]: 46.9 ± 0.32 µM

[Ca+2] [calcium, reference compound]
phosphorylation of Akt (in words) ([3]; HUVECs, positive control or overall result, concentration not given): profoundly increased | phosphorylation of eNOS (in words) [5]: profoundly increased

EALVSQLTR [from Trichiurus lepturus myosin]
IC50 [6, 9]: 91.5 µM

Phe-Gly-Als-Ser-Thr-Arg-Gly-Ala (FGASTRGA; printed 'Als' at position 3 read as a typo for Ala) [from Alaska pollock frame]
IC50 [6, 9]: 14.7 µM

Arg-Val-Cys-Leu-Pro (RVCLP) [from lizard fish]
IC50 [6, 9]: 175 µM

ALGPQFY [from stone fish]
IC50 [6, 9]: 12 µM

Trp-Tyr-Lys (WYK) (peptide)
IC50 of inhibition of ACE enzymatic activity (Dojindo ACE kit-WST) [7]: 33 µM

Val-Tyr [Sardine peptide (Val-Tyr), reference compound]
systolic blood pressure (SBP) [2]: 184 ± 2 mmHg | change in blood pressure, overall result (in words) [2]: declined considerably | IC50 ([6]; determined by Matsufuji et al., read-out: IC50 value of ACE inhibition (sardine peptide)): 26 µM

ANSEVAQWR [from Trichiurus lepturus myosin]
IC50 [6, 9]: 89.6 µM

Ala-Ser-Leu [from silkworm pupa]
IC50 [6, 9]: 102 µM

IVDR [Ile-Val-Asp-Arg (IVDR)]
IC50 of inhibition of ACE enzymatic activity (Dojindo ACE kit-WST) [7]: 46.9 µM

VASVI [Val-Ala-Ser-Val-Ile (VASVI)]
IC50 of inhibition of ACE enzymatic activity (Dojindo ACE kit-WST) [7]: 32.7 µM
